Test [1] deals with Phosphatidylinositol 4,5-bisphosphate 3-kinase catalytic subunit alpha isoform (Homo sapiens, UniProt P42336). In words: Inhibition of PI3Kalpha (unknown origin) using lipid substrate by Kinase-Glo plus luminescence kinase assay or and ADP-Glo Plus luminescence kinase assay.
For test [2], the target named is Serine/threonine-protein kinase mTOR (Homo sapiens, UniProt P42345). As to the kind of experiment: Inhibition of mTOR (unknown origin) by Kinase-Glo plus luminescence kinase assay or and ADP-Glo Plus luminescence kinase assay. On the technique in general: Kinase-Glo reads ATP consumption through a luciferase reaction.
The test system of the next test is MCF7. As to the kind of experiment: cells. The note with it: Homo sapiens, MCF7, 72 h.
The subject of a further test is A2780. As to the kind of experiment: cells. To be noted: Homo sapiens, A2780, 72 h.

Phosphatidylinositol 4,5-bisphosphate 3-kinase catalytic subunit alpha isoform, sequence (P42336 whole entry, canonical isoform): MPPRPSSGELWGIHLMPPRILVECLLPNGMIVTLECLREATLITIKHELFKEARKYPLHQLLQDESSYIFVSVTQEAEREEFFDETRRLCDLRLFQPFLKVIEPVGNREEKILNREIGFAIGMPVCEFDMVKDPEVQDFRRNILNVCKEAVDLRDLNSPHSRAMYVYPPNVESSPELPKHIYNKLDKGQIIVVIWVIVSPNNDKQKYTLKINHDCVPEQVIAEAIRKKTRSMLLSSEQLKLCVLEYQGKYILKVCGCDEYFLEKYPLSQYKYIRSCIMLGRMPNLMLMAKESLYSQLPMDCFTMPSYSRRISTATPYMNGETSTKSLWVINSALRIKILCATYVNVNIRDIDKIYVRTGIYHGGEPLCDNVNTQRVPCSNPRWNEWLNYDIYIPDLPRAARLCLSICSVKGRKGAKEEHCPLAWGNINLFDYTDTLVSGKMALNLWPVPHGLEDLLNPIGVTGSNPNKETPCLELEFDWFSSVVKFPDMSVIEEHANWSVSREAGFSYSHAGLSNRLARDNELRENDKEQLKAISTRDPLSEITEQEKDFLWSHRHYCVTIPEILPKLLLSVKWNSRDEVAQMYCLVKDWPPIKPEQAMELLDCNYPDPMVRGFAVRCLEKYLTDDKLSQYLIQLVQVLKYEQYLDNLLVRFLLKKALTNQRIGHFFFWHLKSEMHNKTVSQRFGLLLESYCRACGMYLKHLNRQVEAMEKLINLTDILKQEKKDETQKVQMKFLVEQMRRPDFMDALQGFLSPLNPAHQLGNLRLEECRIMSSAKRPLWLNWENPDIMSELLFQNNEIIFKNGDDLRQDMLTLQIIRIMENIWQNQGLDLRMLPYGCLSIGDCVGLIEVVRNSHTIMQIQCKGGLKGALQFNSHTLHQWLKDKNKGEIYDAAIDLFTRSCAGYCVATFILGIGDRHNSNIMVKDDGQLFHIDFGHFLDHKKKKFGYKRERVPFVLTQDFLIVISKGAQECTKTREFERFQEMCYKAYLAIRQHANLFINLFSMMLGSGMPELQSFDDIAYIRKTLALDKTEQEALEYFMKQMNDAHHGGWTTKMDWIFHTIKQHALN
Description for A2780: Antiproliferative activity against human A2780 cells incubated for 72 hrs by MTT assay
Description for MCF7: Antiproliferative activity against human MCF7 cells incubated for 72 hrs by MTT assay

As to `CCNC(=O)Nc1ccc(-c2nc3c(c(N4CCOC[C@@H]4C)n2)CCN(C2COC2)C3)cc1` [RG-7603], the IC50 – broadly, the concentration needed to halve the response being measured – came out at 4200 nM in test [1], 39 nM in test [2], 5.8 nM with MCF7 and 330 nM in the test with A2780.

As for `CCCn1cnc2c(N3CCOC[C@@H]3C)cc(-c3ccc(NC(=O)NCC)cc3)nc21`, the IC50 in test [1] was > 10000 nM; in test [2], 290 nM; with MCF7, 64 nM; with A2780 it was 3110 nM.

In the case of `CCNC(=O)Nc1ccc(-c2cc(N3CCOC[C@@H]3C)c3nc(C)n(CC)c3n2)cc1`, the IC50 in test [1] was > 10000 nM; in test [2], 330 to 332 nM; with MCF7 it was 18 nM; in the test with A2780, 2710 nM.

The values above are taken from ChEMBL document CHEMBL4052688, “Design, synthesis and biological evaluation of novel 3H-imidazole [4,5-b] pyridine derivatives as selective mTOR inhibitors” (Bioorg Med Chem Lett, 2017).
